Source: US20230295152A1 (SENDA BIOSCIENCES, INC., priority 2019, published 2023)
Where two headings read alike, the source gives them in different places.

Legend:
[1] = target: T1, AHR (Homo sapiens, UniProt P35869); experiment: DRE-Luciferase Reporter Assay, HepG2 AhR-Lucia reporter cells; type: cell-based; settings: with AHR activating ligand at EC50, read-out: HepG2-Luc IC50
T1 construct: other cell line with a DRE-luciferase reporter stably transfected; endogenous in cells; host or cells: HepG2 AhR-Lucia reporter cells
T1 sequence (P35869 11-848): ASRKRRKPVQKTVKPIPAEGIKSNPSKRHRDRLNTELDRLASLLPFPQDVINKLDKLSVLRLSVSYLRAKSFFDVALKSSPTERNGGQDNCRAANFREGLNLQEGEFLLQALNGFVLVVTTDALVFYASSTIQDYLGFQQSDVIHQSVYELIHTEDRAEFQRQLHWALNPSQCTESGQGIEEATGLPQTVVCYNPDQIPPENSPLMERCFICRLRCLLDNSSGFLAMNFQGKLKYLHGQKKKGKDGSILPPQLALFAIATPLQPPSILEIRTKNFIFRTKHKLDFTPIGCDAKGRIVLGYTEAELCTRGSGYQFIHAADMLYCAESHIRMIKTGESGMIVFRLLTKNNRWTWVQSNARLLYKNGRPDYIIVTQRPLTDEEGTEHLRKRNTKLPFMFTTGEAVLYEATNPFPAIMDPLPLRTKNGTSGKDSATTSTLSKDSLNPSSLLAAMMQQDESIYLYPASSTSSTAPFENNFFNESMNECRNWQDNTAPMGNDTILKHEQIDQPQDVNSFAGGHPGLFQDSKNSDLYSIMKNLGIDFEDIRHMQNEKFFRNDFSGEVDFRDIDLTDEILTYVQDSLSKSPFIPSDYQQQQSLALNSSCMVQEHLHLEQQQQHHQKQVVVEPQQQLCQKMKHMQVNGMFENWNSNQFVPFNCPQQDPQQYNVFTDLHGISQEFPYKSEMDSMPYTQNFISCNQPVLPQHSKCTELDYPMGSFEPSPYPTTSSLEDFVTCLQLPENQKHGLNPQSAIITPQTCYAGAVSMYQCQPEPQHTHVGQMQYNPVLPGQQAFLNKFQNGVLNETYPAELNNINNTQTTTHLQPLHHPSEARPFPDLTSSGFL
In short: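 DRE-luciferase reporter cells (e.g. HepG2 AhR-Lucia, 20000 cells) treated with antagonist log dilutions from 100 uM, then an AHR agonist (e.g. TCDD, kynurenine, ITE, FICZ) at its EC50 added after 1 hr. Secreted luciferase measured after 24 or 48 h (QUANTI-Luc); IC50 = concentration halving luciferase activity.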

[2] = Hepatocyte Stability Assay, rat; type: in vitro ADME; settings: rat hepatocytes; note: tested at 1 µM
Method: (§1) • Preparation of working solutions: 10 mM stock solutions of test compound and positive control were prepared in DMSO. In separate conical tubes, the 10 mM solution of test compound and the positive control were diluted to 100 μM by combining 198 μL of 50% acetonitrile/50% water and 2 μL of 10 mM stock.
Preparation of Hepatocytes: Incubation medium (William's E Medium supplemented with GlutaMAX) and hepatocyte thawing medium were placed in a 37° C. water bath and allowed warming for at least 15 minutes prior to use. A vial of cryopreserved hepatocytes was transferred from storage, ensuring that vials remained at cryogenic temperatures until thawing process ensued. Cells were thawed by placing the vial in a 37° C. water bath and gently shaking the vials for 2 minutes. After thawing was completed, vial was sprayed with 70% ethanol and transferred to a biosafety cabinet. Wide-bore pipette tip were used to transfer hepatocytes into 50 mL conical tube containing thawing medium. The 50 mL conical tube were placed into a centrifuge and spun at 100 g for 10 minutes. Upon completion of spin, thawing medium was aspirated and resuspended hepatocytes in enough incubation medium to yield ˜1.5×10^6 cells/mL. Using an AO/PI Staining, cells were counted and the viable cell density was determined. Cells with poor viability (<75% viability) were determined to be not acceptable for use. Cells were diluted with incubation medium to a working cell density of 0.5×10^6 viable cells/mL.
Procedure for Stability Determination: 198 μL of hepatocytes were pipetted into each wells of a 96-well non-coated plate. The plate was placed in the incubator to allow the hepatocytes to warm for 10 minutes. 2 μL of the 100 μM test compound or positive control solutions were pipetted into respective wells of the 96-well non-coated plate to start the reaction. The plate was returned to the incubator for the designed time points. Well contents was transferred in 25 μL aliquots at time points of 0, 15, 30, 60, 90 and 120 minutes. The aliquots were then mixed with 6 volumes (150 μL) of acetonitrile containing internal standard, IS (100 nM alprazolam, 200 nM caffeine and 100 nM tolbutamide) to terminate the reaction. The mixture was vortex for 5 minutes. Samples were centrifuged for 45 minutes at 3,220 g. An aliquot of 100 μL of the supernatant was diluted by 100 μL ultra-pure water, and the mixture was used for LC/MS/MS analysis. All incubations were performed in duplicate.
(§2) Data Analysis: All calculations were carried out using Microsoft Excel. Peak areas were determined from extracted ion chromatograms. In vitro half-life (t1/2) of parent compound was determined by regression analysis of the percent parent disappearance vs. time curve.
(§3) The in vitro half-life (in vitro t1/2) was determined from the slope value:
(§4) Conversion of the in vitro t1/2 (in min) into the in vitro intrinsic clearance (in vitro CLint, in μL/min/1×10^6 cells) was done using the following equation (mean of duplicate determinations):
(§5) V=incubation volume(0.2 mL);
(§6) N=number of hepatocytes per well(0.1×10^6 cells).
“+++” indicates a CLint value less than 20 mL/min/Kg, “++” indicates a CLint between 20 and 50 mL/min/Kg, and “+” indicates an CLint above 50 mL/min/Kg.

[3] = Hepatocyte Stability Assay, mouse; type: in vitro ADME; settings: mouse hepatocytes; note: tested at 1 µM
Method: Example 7: Hepatocyte Stability Assay
as §1, §2, §3, §4, §5, §6

[4] = Hepatocyte Stability Assay, human; type: in vitro ADME; settings: human, plated hepatocytes, plated hepatocyte

| Structure (SMILES) | IC50 [1] [µM] | Rat hepatocyte clearance [2] | Mouse hepatocyte clearance [3] | CLint scaled ([4]; Alliance assay, read-out: Human hepatocyte clearance Plated hepatocyte Alliance assay) [mL/min/kg] | CLint scaled ([4]; Pharmaron assay, read-out: Human hepatocyte clearance Plated hepatocyte Pharmaron assay) [mL/min/kg] |
| --- | --- | --- | --- | --- | --- |
| C[C@@H](CO)n1cnc2c(-c3cccnc3)nc(-c3ccc(C(F)(F)F)nc3)cc2c1=O [Compound 12] | < 0.1 | +++ (“+++” indicates a CLint value less than 20 mL/min/Kg) | ++ (“++” indicates a CLint between 20 and 50 mL/min/Kg) | < 20 | – |
| CC(C)(O)Cn1cnc2c(-c3cccnc3)nc(-c3ccc(C(F)(F)F)cn3)cc2c1=O [Compound 105] | < 0.1 | +++ (“+++” indicates a CLint value less than 20 mL/min/Kg) | ++ (“++” indicates a CLint between 20 and 50 mL/min/Kg) | – | < 20 |
